Experimental data: PubChem BioAssay AID2060611 (Molecular Pharmacology Branch, DTP, NCI, 2025)
Values joined by “and” are separate entries in the source; they are usually repeats but may differ in a detail not shown here. Identical values can stand only once.

Test system: 628569-122-R-J1-PDC complex spheroid viability
Assay: Anticancer human tumor 628569-122-R-J1-PDC patient-derived head and neck squamous carcinoma cell line growth inhibition [CLK]
Conditions: for viability, T/C: stronger effect = lower value
Procedure, shortened: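 Multi-cell-type spheroids combined patient-derived tumor cells with HUVEC endothelial cells and human mesenchymal stem cells. Paired agents were dosed in half-log steps down from about clinical Cmax, or from 10 microM where Cmax was unknown.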

[1] = curve of first compound, second compound 0.0316 µM
[2] = curve of first compound, second compound 0.1 µM
[3] = curve of first compound, second compound 0.316 µM
[4] = curve of first compound, second compound 1 µM
[5] = curve of first compound, second compound 3.16 µM
[6] = curve of first compound, second compound 10 µM
[7] = second compound 0.0316 µM, first compound 0.00316 µM
[8] = second compound 0.0316 µM, first compound 0.01 µM
[9] = second compound 0.0316 µM, first compound 0.0316 µM
[10] = second compound 0.0316 µM, first compound 0.1 µM
[11] = second compound 0.0316 µM, first compound 0.316 µM
[12] = second compound 0.0316 µM, first compound 1 µM
[13] = second compound 0.1 µM, first compound 0.00316 µM
[14] = second compound 0.1 µM, first compound 0.01 µM
[15] = second compound 0.1 µM, first compound 0.0316 µM
[16] = second compound 0.1 µM, first compound 0.1 µM
[17] = second compound 0.1 µM, first compound 0.316 µM
[18] = second compound 0.1 µM, first compound 1 µM
[19] = second compound 0.316 µM, first compound 0.00316 µM
[20] = second compound 0.316 µM, first compound 0.01 µM
[21] = second compound 0.316 µM, first compound 0.0316 µM
[22] = second compound 0.316 µM, first compound 0.1 µM
[23] = second compound 0.316 µM, first compound 0.316 µM
[24] = second compound 0.316 µM, first compound 1 µM
[25] = second compound 1 µM, first compound 0.00316 µM
[26] = second compound 1 µM, first compound 0.01 µM
[27] = second compound 1 µM, first compound 0.0316 µM
[28] = second compound 1 µM, first compound 0.1 µM
[29] = second compound 1 µM, first compound 0.316 µM
[30] = second compound 1 µM, first compound 1 µM
[31] = second compound 3.16 µM, first compound 0.00316 µM
[32] = second compound 3.16 µM, first compound 0.01 µM
[33] = second compound 3.16 µM, first compound 0.0316 µM
[34] = second compound 3.16 µM, first compound 0.1 µM
[35] = second compound 3.16 µM, first compound 0.316 µM
[36] = second compound 3.16 µM, first compound 1 µM
[37] = second compound 10 µM, first compound 0.00316 µM
[38] = second compound 10 µM, first compound 0.01 µM
[39] = second compound 10 µM, first compound 0.0316 µM
[40] = second compound 10 µM, first compound 0.1 µM
[41] = second compound 10 µM, first compound 0.316 µM
[42] = second compound 10 µM, first compound 1 µM
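Also: spheroids exposed to agents for seven days before readout.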
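For viability, T/C in this document: 100% = DMSO vehicle control viability.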

Compound: CCN1CCN(Cc2ccc(Nc3ncc(F)c(-c4cc(F)c5nc(C)n(C(C)C)c5c4)n3)nc2)CC1 + CN1CCN(c2cc(C(=O)Nc3cc4cc(-c5cnn(C)c5)ccc4cn3)ccn2)CC1
- IC50 [1]: > 1000 nM
- IC50 [2]: > 1000 nM
- IC50 [3]: < 3.16 nM
- IC50 [4]: < 3.16 nM
- IC50 [5]: < 3.16 nM
- IC50 [6]: < 3.16 nM
- viability, T/C [7]: 91.4%
- viability, T/C [8]: 85.2%
- viability, T/C [9]: 73.7%
- viability, T/C [10]: 79.6%
- viability, T/C [11]: 132%
- viability, T/C [12]: 181%
- viability, T/C [13]: 72.8%
- viability, T/C [14]: 55.6%
- viability, T/C [15]: 64.6%
- viability, T/C [16]: 75.3%
- viability, T/C [17]: 96.8%
- viability, T/C [18]: 157%
- viability, T/C [19]: 42.6%
- viability, T/C [20]: 43.2%
- viability, T/C [21]: 48.1%
- viability, T/C [22]: 53.1%
- viability, T/C [23]: 81.8%
- viability, T/C [24]: 88.4%
- viability, T/C [25]: 10.7%
- viability, T/C [26]: 5.74%
- viability, T/C [27]: 6.1%
- viability, T/C [28]: 7.58%
- viability, T/C [29]: 12%
- viability, T/C [30]: 12.2%
- viability, T/C [31]: 9.03%
- viability, T/C [32]: 6.91%
- viability, T/C [33]: 7.06%
- viability, T/C [34]: 8.11%
- viability, T/C [35]: 10.9%
- viability, T/C [36]: 11.1%
- viability, T/C [37]: 9.28%
- viability, T/C [38]: 1.85%
- viability, T/C [39]: 3.61%
- viability, T/C [40]: 4.38%
- viability, T/C [41]: 8.89%
- viability, T/C [42]: 4.27%

Compound: Cn1ncnc1[C@H]1c2n[nH]c(=O)c3cc(F)cc(c23)N[C@@H]1c1ccc(F)cc1 + CN1CCN(c2cc(C(=O)Nc3cc4cc(-c5cnn(C)c5)ccc4cn3)ccn2)CC1
- IC50 [1]: > 100 nM
- IC50 [2]: 69 nM
- IC50 [3]: < 0.316 nM
- IC50 [4]: < 0.316 nM
- IC50 [5]: < 0.316 nM
- IC50 [6]: < 0.316 nM
- viability, T/C (second compound 0.0316 µM, first compound 0.000316 µM): 91.6%
- viability, T/C (second compound 0.0316 µM, first compound 0.001 µM): 98.2%
- viability, T/C [7]: 89.9%
- viability, T/C [8]: 92.5%
- viability, T/C [9]: 82.7%
- viability, T/C [10]: 58.4%
- viability, T/C (second compound 0.1 µM, first compound 0.000316 µM): 58.3%
- viability, T/C (second compound 0.1 µM, first compound 0.001 µM): 68.8%
- viability, T/C [13]: 69.9%
- viability, T/C [14]: 62.5%
- viability, T/C [15]: 53.8%
- viability, T/C [16]: 47.5%
- viability, T/C (second compound 0.316 µM, first compound 0.000316 µM): 35.3%
- viability, T/C (second compound 0.316 µM, first compound 0.001 µM): 31.6%
- viability, T/C [19]: 33.2%
- viability, T/C [20]: 34.2%
- viability, T/C [21]: 33%
- viability, T/C [22]: 21.4%
- viability, T/C (second compound 1 µM, first compound 0.000316 µM): 12.2%
- viability, T/C (second compound 1 µM, first compound 0.001 µM): 4.22%
- viability, T/C [25]: 4.14%
- viability, T/C [26]: 4.53%
- viability, T/C [27]: 6.11%
- viability, T/C [28]: 5.95%
- viability, T/C (second compound 3.16 µM, first compound 0.000316 µM): 9.51%
- viability, T/C (second compound 3.16 µM, first compound 0.001 µM): 3.28%
- viability, T/C [31]: 6.67%
- viability, T/C [32]: 8.93%
- viability, T/C [33]: 9.05%
- viability, T/C [34]: 5.6%
- viability, T/C (second compound 10 µM, first compound 0.000316 µM): 7.27%
- viability, T/C (second compound 10 µM, first compound 0.001 µM): 1.99%
- viability, T/C [37]: 2.02%
- viability, T/C [38]: 9.25%
- viability, T/C [39]: 4.57%
- viability, T/C [40]: 0.98%

Compound: CC(Nc1ccc2c(c1)OCCn1cc(N3C(=O)OCC3C(F)F)nc1-2)C(N)=O (stereo not drawn)
- viability, T/C (compound 0.0316 µM): 66.2% and 56.2%
- viability, T/C (compound 0.1 µM): 68.1% and 60.1%
- viability, T/C (compound 0.316 µM): 39.3% and 46.8%
- viability, T/C (compound 1 µM): 40.2% and 37.5%
- viability, T/C (compound 3.16 µM): 32% and 39.5%
- viability, T/C (compound 10 µM): 18.5% and 29.7%
- IC50 (curve of compound): 279 nM and 217 nM

Compound: CCCS(=O)(=O)Nc1ccc(F)c(C(=O)c2c[nH]c3ncc(-c4ccc(Cl)cc4)cc23)c1F + CNC(=O)c1ccc(Nc2nc(OC3CCCC3)c3c(-c4ccc5nc(C)oc5c4)c[nH]c3n2)c(OC)c1
- IC50 [1]: > 10000 nM
- IC50 [2]: > 10000 nM
- IC50 [3]: > 10000 nM
- IC50 [4]: < 31.6 nM
- IC50 [5]: < 31.6 nM
- IC50 [6]: < 31.6 nM
- viability, T/C [9]: 85.7%
- viability, T/C [10]: 86.2%
- viability, T/C [11]: 72.4%
- viability, T/C [12]: 90.2%
- viability, T/C (second compound 0.0316 µM, first compound 3.16 µM): 91%
- viability, T/C (second compound 0.0316 µM, first compound 10 µM): 73.5%
- viability, T/C [15]: 58%
- viability, T/C [16]: 63.7%
- viability, T/C [17]: 54%
- viability, T/C [18]: 57.4%
- viability, T/C (second compound 0.1 µM, first compound 3.16 µM): 62%
- viability, T/C (second compound 0.1 µM, first compound 10 µM): 68.4%
- viability, T/C [21]: 51.7%
- viability, T/C [22]: 49.9%
- viability, T/C [23]: 49.7%
- viability, T/C [24]: 64.8%
- viability, T/C (second compound 0.316 µM, first compound 3.16 µM): 49.6%
- viability, T/C (second compound 0.316 µM, first compound 10 µM): 56%
- viability, T/C [27]: 48%
- viability, T/C [28]: 42.3%
- viability, T/C [29]: 43.4%
- viability, T/C [30]: 45.7%
- viability, T/C (second compound 1 µM, first compound 3.16 µM): 52.3%
- viability, T/C (second compound 1 µM, first compound 10 µM): 50.9%
- viability, T/C [33]: 43.9%
- viability, T/C [34]: 42.1%
- viability, T/C [35]: 46.1%
- viability, T/C [36]: 44.2%
- viability, T/C (second compound 3.16 µM, first compound 3.16 µM): 53%
- viability, T/C (second compound 3.16 µM, first compound 10 µM): 45.7%
- viability, T/C [39]: 39.7%
- viability, T/C [40]: 39.1%
- viability, T/C [41]: 40.8%
- viability, T/C [42]: 34.7%
- viability, T/C (second compound 10 µM, first compound 3.16 µM): 50.4%
- viability, T/C (second compound 10 µM, first compound 10 µM): 51.1%
